Results from ChEMBL document CHEMBL4715758, “Hit-to-Lead Optimization of a Novel Class of Potent, Broad-Spectrum Trypanosomacides” (J Med Chem, 2016).
≈ marks a conversion by molar mass, not a printed value. Calls of active or inactive are those of the source. No cut-off for these calls is given here.

What was measured:
Trypanosoma cruzi [1] = assay: Antitrypanosomal activity against Trypanosoma cruzi Tulahuen C4 strain amastigotes infected in rat L6 cells measured after 96 hrs by inverted microscopy analysis; format: functional, organism-based; conditions: Tulahuen C4, L6, 96 h
[2] = Kinetic solubility of compound at pH 2 by nephelometry; format: physicochemical; conditions: buffer, read-out: Kinetic_solubility
[3] = Kinetic solubility of compound at pH 6.5 phosphate buffer by nephelometry; format: physicochemical; conditions: read-out: Kinetic_solubility
Leishmania donovani = assay: Antileishmanial activity against Leishmania donovani MHOM/ET/67/L82 amastigotes measured after 72 hrs by alamar blue dye based fluorimetry analysis; format: functional, organism-based; conditions: MHOM/ET/67/L82, 72 h
[4] = Partition coefficient, log D of compound at pH 7.4 by HPLC; format: physicochemical; conditions: octanol/water
[5] = Metabolic stability in human liver microsomes assessed as degradation half-life measured after 60 mins in presence of NADPH generating system by LC-MS analysis; format: ADME, Microsome; conditions: read-out: T50
[6] = Intrinsic clearance in human liver microsomes assessed per mg protein measured after 60 mins in presence of NADPH generating system by LC-MS analysis; format: ADME, Microsome; conditions: read-out: CLH
L6 = assay: Cytotoxicity against rat L6 cells assessed as reduction in cell viability measured after 72 hrs by alamar blue dye based fluorimetry analysis; conditions: L6, 72 h
[7] = Protein binding in human plasma by HPLC-MS analysis; format: ADME, cell-free; conditions: read-out: PPB (converted)
Trypanosoma cruzi [8] = assay: Antitrypanosomal activity against Trypanosoma cruzi Tulahuen strain trypomastigotes infected in rat H9c2 cells incubated for 72 hrs by DRAQ5 DNA dye based imaging analysis; format: functional, organism-based; conditions: H9c2, 72 h
[9] = test system: Trypanosoma brucei rhodesiense; assay: Antitrypanosomal activity against Trypanosoma brucei rhodesiense STIB900 trypomastigotes incubated for 72 hrs by resazurin dye based fluorescence assay; format: functional, organism-based; conditions: STIB900, 72 h
[10] = Metabolic stability in human liver microsomes assessed as half-life measured after 60 mins in presence of NADPH generating system by LC-MS analysis; format: ADME, Microsome
[11] = Dose normalized Cmax in Balb/c mouse at 50 mg/kg, po administered via gavage in presence of 1-aminobenzotriazole; format: ADME, organism-based; conditions: in vivo
[12] = AUClast (0 to t) in Balb/c mouse at 50 mg/kg, po administered via gavage; format: ADME, organism-based; design: time 0 - last, route oral, dose 50 mg/kg; conditions: in vivo
[13] = Toxicity in Balb/c mouse infected with Trypanosoma cruzi Brazil trypomastigotes coexpressing luciferase assessed as ruffled fur at 50 mg/kg, po BID administered for 5 days; format: organism-based; conditions: in vivo, 120 h, time 5 day
[14] = AUClast (0 to t) in Balb/c mouse at 50 mg/kg, po administered via gavage in presence of 1-aminobenzotriazole; format: ADME, organism-based; design: route oral, time 0 - last, dose 50 mg/kg; conditions: in vivo
[15] = Dose normalized AUClast in Balb/c mouse at 50 mg/kg, po administered via gavage; format: ADME, organism-based; conditions: in vivo
Trypanosoma cruzi [16] = assay: Antitrypanosomal activity against Trypanosoma cruzi Brazil trypomastigotes coexpressing luciferase infected in BALB/c mouse model assessed as reduction in parasite load at 50 mg/kg, po BID administered for 5 days followed by cyclophosphamide addition 30 days post last dose and measured 10 days post cyclophosphamide addition; format: functional, organism-based; conditions: time 45.0 day
[17] = Metabolic stability in mouse liver microsomes assessed as degradation half-life measured after 60 mins in presence of NADPH generating system by LC-MS analysis; format: ADME, Microsome; conditions: read-out: T50
[18] = Dose normalized AUClast in Balb/c mouse at 50 mg/kg, po administered via gavage in presence of 1-aminobenzotriazole; format: ADME, organism-based; conditions: in vivo
[19] = Toxicity in Balb/c mouse infected with Trypanosoma cruzi Brazil trypomastigotes coexpressing luciferase assessed as hunched-back posture at 50 mg/kg, po BID administered for 5 days; format: organism-based; conditions: in vivo, 120 h, time 5 day
[20] = test system: Trypanosoma brucei brucei; assay: Antitrypanosomal activity against Trypanosoma brucei brucei Lister 427 strain blood stream forms incubated for 48 hrs by resazurin dye based fluorescence assay; format: functional, organism-based; conditions: Lister 427, 48 h
[21] = Tmax in Balb/c mouse at 50 mg/kg, po administered via gavage in presence of 1-aminobenzotriazole; format: ADME, organism-based; conditions: in vivo
[22] = Toxicity in Balb/c mouse infected with Trypanosoma cruzi Brazil trypomastigotes coexpressing luciferase assessed as low resistance to handling at 50 mg/kg, po BID administered for 5 days; format: organism-based; conditions: in vivo, 120 h, time 5 day
[23] = Cmax in Balb/c mouse at 50 mg/kg, po administered via gavage; format: ADME, organism-based; design: route oral, dose 50 mg/kg; conditions: in vivo
[24] = Intrinsic clearance in mouse liver microsomes assessed per mg protein measured after 60 mins in presence of NADPH generating system by LC-MS analysis; format: ADME, Microsome; conditions: read-out: CLH
[25] = Selectivity index, ratio of IC50 for cytotoxicity against rat H9c2 cells assessed as reduction in cell viability to IC50 for antitrypanosomal against Trypanosoma cruzi Tulahuen trypomastigotes infected in rat H9c2 cells; format: toxicity, cell-based; conditions: read-out: Ratio IC50
[26] = Selectivity index, ratio of IC50 for cytotoxicity against human HEK293 cells assessed as reduction in cell viability to IC50 for antitrypanosomal activity against Trypanosoma brucei brucei Lister 427 blood stream form; format: toxicity, cell-based; conditions: read-out: Ratio IC50
[27] = Cmax in Balb/c mouse at 50 mg/kg, po administered via gavage in presence of 1-aminobenzotriazole; format: ADME, organism-based; design: route oral, dose 50 mg/kg; conditions: in vivo
Trypanosoma cruzi [28] = assay: Antitrypanosomal activity against Trypanosoma cruzi Brazil trypomastigotes coexpressing luciferase infected in BALB/c mouse model assessed as reduction in parasite load at 50 mg/kg, po BID administered for 5 days measured after 10 days; format: functional, organism-based; conditions: time 10.0 day
[29] = Dose normalized Cmax in Balb/c mouse at 50 mg/kg, po administered via gavage; format: ADME, organism-based; conditions: in vivo
[30] = Tmax in Balb/c mouse at 50 mg/kg, po administered via gavage; format: ADME, organism-based; conditions: in vivo
Plasmodium falciparum = assay: Antiplasmodial activity against chloroquine and pyrimethamine resistant erythrocytic stage of Plasmodium falciparum K1 strain assessed as reduction in [3H]hypoxanthine incorporation measured after 48 hrs by liquid scintillation counting method; format: functional, organism-based

SMILES | IC50 (Trypanosoma cruzi [1]) | IC50 (Leishmania donovani) | half-life [5] | microsomal CLint [6] | IC50 (L6) | IC50 (Trypanosoma cruzi [8]) | IC50 [9] | half-life [10] | selectivity ratio [25] | also measured
O=C(NCCc1csc(-c2ccccc2)n1)N1CCCC1 | 96 nM | 17000 nM | 10 min | 177 µL/min/mg | 144000 nM | 320 nM | 46 nM |  |  | solubility kinetic [2]: > 100 µg/mL; solubility kinetic [3]: 50 µg/mL (≈ 166 µM); logD [4]: 2.8; fraction unbound [7]: 0.14
O=C(NCCc1csc(-c2ccccc2)n1)c1ccccc1F | 1100 nM | 11000 nM |  |  | 79000 nM |  | 420 nM |  |  | 
O=C(NCCc1csc(-c2ccc(F)cc2F)n1)N1CCCCC1 |  |  | 8 min | 225 µL/min/mg |  | 20 nM |  | 5 min | > 3160 | Cmax/dose [11]: 142 kg·ng/mL/mg; AUC(0-t) [12]: 127 ng·h/mL; Activity [13]: Toxic; AUC(0-t) [14]: 14800 ng·h/mL; AUClast/dose [15]: 2.54 ng·h/mL/mg/kg; Activity (Trypanosoma cruzi [16]): inactive; half-life [17]: < 2 min; AUClast/dose [18]: 295 ng·h/mL/mg/kg; Activity [19]: Toxic; IC50 [20]: 24 nM; Tmax [21]: 30 min; Activity [22]: Toxic; Cmax [23]: 212 ng/mL; microsomal CLint [24]: > 1600 µL/min/mg; selectivity ratio [26]: 433; Cmax [27]: 7090 ng/mL; Activity (Trypanosoma cruzi [28]): Active; Cmax/dose [29]: 4.3 kg·ng/mL/mg; Tmax [30]: 15 min
CC(C)OC(=O)NCCc1csc(-c2ccc(F)cc2F)n1 |  |  |  | 135 µL/min/mg |  | 130 nM |  | 10 min | > 398 | 
O=C(NCCc1csc(-c2ccccc2F)n1)N1CCCCC1 |  |  | 4 min | 439 µL/min/mg |  | 10 nM |  |  | > 3980 | half-life [17]: < 2 min; IC50 [20]: 16 nM; microsomal CLint [24]: > 1600 µL/min/mg; selectivity ratio [26]: 650
O=C(NCCc1csc(-c2ccc(F)cc2F)n1)c1cc(F)ccc1F |  |  |  | 231 µL/min/mg |  | 130 nM |  | 6 min | > 398 | 
CC(C)(C)C(=O)NCCc1csc(-c2cccc(F)c2)n1 | 2300 nM | 46000 nM |  |  | 62000 nM |  | 1500 nM |  |  | IC50 (Plasmodium falciparum): 35000 nM
